Results reported in patent publication US12252457B2, “Compositions and methods for reducing tactile dysfunction, anxiety, and social impairment” (President and Fellows of Harvard College, priority 2018, dated 2025).

Test system: large diameter neurons cultured from DRGs of Mecp2 and Shank3 mutant mice
Assay: Whole cell patch-clamp recordings of cultured DRG neurons
Assay type: cell-based, mouse
Conditions: 10 μM isoguvacine
Experimental: FIGS. 27A-27K are related to FIGS. 19A-19N. FIGS. 27A-27B: Representative traces from large diameter neurons cultured from DRGs of control (FIG. 27A) and Mecp2^STOP/y (FIG. 27B) mice during whole cell current clamp recordings, in which the minimal amount of current required to elicit an action potential in each neuron (rheobase, Rh), was determined in the absence or presence of 10 μm isoguvacine. FIG. 27C: Quantification of average Rh in large diameter neurons cultured from DRGs of control mice during a baseline period and then in presence of 10 μm isoguvacine. Repeated measures one-way ANOVA, post-hoc Tukey's test, *, p<0.05. FIG. 27D: Quantification of average Rh in large diameter neurons cultured from DRGs of control mice during a baseline period, followed application of 10 μm isoguvacine, then washout period. […] FIG. 27E: Quantification of average Rh in large diameter neurons cultured from DRGs of control and Mecp2^STOP/y mice during a baseline period and then in presence of 10 μm isoguvacine. […] FIG. 27F: Quantification of average Rh in large diameter neurons cultured from DRGs of control and Shank3B^+/− mice during a baseline period and then in presence of 10 μm isoguvacine. […] FIG. 27G: Quantification of total Ih density at each hyperpolarizing voltage step for large diameter neurons cultured from DRGs of control, Mecp2^STOP/y and Shank3B^+/− mutant mice. […]

With `O=C(O)C1=CCNCC1` [Isoguvacine, isoguvacine] the Ih (large diameter DRG neurons) was “without affecting Ih” and the “hyperexcitability phenotype (rheobase) of large diameter DRG neurons” value (neurons from Mecp2 and Shank3 mutant mice) was “reduced the hyperexcitability phenotype”.
